The record followed here is patent US8183262B2, “Pyridine derivatives as mGluR2 antagonists” (Hoffmann-La Roche Inc., priority 2007, dated 2012).

Molecules are shown by their SMILES.

The term melting point denotes the temperature, or range, at which the solid turns liquid.

`Cc1cc(-c2ccc(C(F)(F)F)cc2)nc(-n2cnc(-c3cnc(N)nc3)c2)n1` [Example 47, 5-{1-[4-Methyl-6-(4-trifluoromethyl-phenyl)-pyrimidin-2-yl]-1H-imidazol-4-yl}-pyrimidin-2-ylamine] showed a melting point of 267 to 269 °C.

Molecule `Cc1cc(-c2ccc(C(F)(F)F)cc2)nc(-n2cnc(-c3cccnc3)c2)n1` [Example 48, 4-Methyl-2-(4-pyridin-3-yl-imidazol-1-yl)-6-(4-trifluoromethyl-phenyl)-pyrimidine] gave a melting point of 208 to 210 °C.

`Nc1ccc(-c2cn(-c3nc(-c4ccc(Cl)cc4)cc(C4CC4)n3)cn2)cn1` [Example 49, 5-{1-[4-(4-Chloro-phenyl)-6-cyclopropyl-pyrimidin-2-yl]-1H-imidazol-4-yl}-pyridin-2-ylamine] gave a melting point of 220 to 222 °C.

For `Clc1ccc(-c2cc(C3CC3)nc(-n3cnc(-c4cccnc4)c3)n2)cc1` [Example 50, 4-(4-Chloro-phenyl)-6-cyclopropyl-2-(4-pyridin-3-yl-imidazol-1-yl)-pyrimidine], the melting point was 180 to 182 °C.

`Nc1ncc(-c2cn(-c3nc(-c4ccc(Cl)cc4)cc(C4CC4)n3)cn2)cn1` [Example 51, 5-{1-[4-(4-Chloro-phenyl)-6-cyclopropyl-pyrimidin-2-yl]-1H-imidazol-4-yl}-pyrimidin-2-ylamine] yielded a melting point of 238 to 240 °C.

In turn, `Nc1ccc(-c2cn(-c3nccc(-c4ccc(Cl)cc4)n3)cn2)cn1` [Example 52, 5-{1-[4-(4-Chloro-phenyl)-pyrimidin-2-yl]-1H-imidazol-4-yl}-pyridin-2-ylamine] displayed a melting point of 188 to 190 °C.

`Nc1ccc(-c2cn(-c3nc(-c4cccc(C(F)(F)F)c4)cc(C(F)(F)F)n3)cn2)cn1` [Example 53, 5-{1-[4-Trifluoromethyl-6-(3-trifluoromethyl-phenyl)-pyrimidin-2-yl]-1H-imidazol-4-yl}-pyridin-2-ylamine] returned a melting point of 262 °C.

Turning to `Cc1cc(-c2ccc(C(F)(F)F)cc2)cc(-n2cnc(-c3ccc(N)nc3)c2)n1` [Example 58, 5-{1-[6-Methyl-4-(4-trifluoromethyl-phenyl)-pyridin-2-yl]-1H-imidazol-4-yl}-pyridin-2-ylamine], the melting point lay within 224 to 226 °C.

As for `Nc1ccc(-c2cccc(-c3cc(-c4ccc(C(F)(F)F)cc4)cc(C4CC4)n3)c2)cn1` [Example 64, 5-{3-[6-Cyclopropyl-4-(4-trifluoromethyl-phenyl)-pyridin-2-yl]-phenyl}-pyridin-2-ylamine], the melting point was 130 to 135 °C.

`Nc1ncc(-c2cn(-c3cc(C(F)(F)F)cc(-c4ccc(C(F)(F)F)cc4)n3)cn2)cn1` [Example 66, 5-{1-[4-Trifluoromethyl-6-(4-trifluoromethyl-phenyl)-pyridin-2-yl]-1H-imidazol-4-yl}-pyrimidin-2-ylamine]: the melting point was over 250 °C.

`Cc1cc(-c2ccc(C(F)(F)F)cc2)cc(-c2cncc(-c3ccc(N)nc3)c2)n1` [Example 67, 6-Methyl-4-(4-trifluoromethyl-phenyl)-[2,3′;5′,3″]terpyridin-6″-ylamine] returned a melting point of 161 to 177 °C.

For `Cc1cc(-c2ccc(C(F)(F)F)cc2)cc(-c2cncc(-c3cnc(N)nc3)c2)n1` [Example 68, 5-[6-Methyl-4-(4-trifluoromethyl-phenyl)-[2,3′]bipyridinyl-5′-yl]-pyrimidin-2-ylamine], the melting point was 248 to 252 °C.

`Nc1ccc(-c2cncc(-c3cc(-c4ccc(C(F)(F)F)cc4)cc(C4CC4)n3)c2)cn1` [Example 69, 6-Cyclopropyl-4-(4-trifluoromethyl-phenyl)-[2,3′;5′,3″]terpyridin-6″-ylamine] yielded a melting point of 207 to 209 °C.

For the molecule `Cc1cc(-c2ccc(C(F)(F)F)cc2)cc(-c2ccnc(-c3cnc(N)nc3)c2)n1` [Example 76, 5-[6-Methyl-4-(4-trifluoromethyl-phenyl)-[2,4′]bipyridinyl-2′-yl]-pyrimidin-2-ylamine], the melting point is over 245 °C.
